Assay results from patent US20260158149A1, “GLYCOSYLATED PRODRUGS” (UNIVERSITEIT LEIDEN, priority 2021, published 2026).
“Also recorded” adds a separate entry of the source.

Experiments:
[1] = system: neutrophils migrated to the wounded area; test: Tail fin amputation assay: neutrophil migration to the wounded area; type: in vivo, Zebrafish (Danio rerio); details: for reduction in neutrophil migration in the presence of MZ31: GBA2 inhibitor MZ31; for neutrophil migration in Gba2-deficient larvae: gba2-/- mutant line; for inhibition of neutrophil migration in Gr deficient larvae: gr mutant line (gr-/-); for reduction in neutrophil migration in the presence of miglustat: non-specific GBA inhibitor miglustat
Method: Zebrafish (Danio rerio) were maintained and handled according to the guidelines from the Zebrafish Model Organism Database (https://zfin.org/) and in compliance with the directives of the local animal welfare committee of Leiden University. To maintain circadian rhythmicity, adult fish were exposed to a 14 h light and 10 h dark cycle. Fertilization was performed by natural spawning at the beginning of the light period. Fertilized eggs were collected and raised at 28° C. in egg water (60 μg/ml Instant Ocean sea salts and 0.0025% methylene blue). The following zebrafish lines were used in this study: AB/TL wild type, the transgenic lines Tg(mpx:GFP^i114/mpeg1:mCherry^umsF001) (Bernut et al., (2014). Mycobacterium abscessus cording prevents phagocytosis and promotes abscess formation. Proc Natl Acad Sci USA 111, E943-952; Renshaw et al., (2006). A transgenic zebrafish model of neutrophilic inflammation. Blood 108, 3976-3978), and Tg(9xGCRE-HSV.UI123:EGFP)^ia20 (Benato et al., (2014). A living biosensor model to dynamically trace glucocorticoid transcriptional activity during development and adult life in zebrafish. Mol Cell Endocrinol 392, 60-72), and the mutant lines gba2^−/− (Lelieveld et al., (2019). Role of beta-glucosidase 2 in aberrant glycosphingolipid metabolism: model of glucocerebrosidase deficiency in zebrafish. J Lipid Res 60, 1851-1867) and gr^s357 (Ziv et al., (2013). An affective disorder in zebrafish with mutation of the glucocorticoid receptor. Mol Psychiatry 18, 681-691).
(§1) For the tail fin amputation experiments, 3 days post fertilization (dpf) larvae from the Tg(mpx:GFP^i114/mpeg1:mCherry^umsF001) line were anesthetized in 0.02% buffered aminobenzoic acid ethyl ester (tricaine) in egg water and placed on a 2% agarose-coated petri dish. The tails were partially amputated with a 1 mm sapphire blade (World Precision Instruments) under a Leica M165C stereomicroscope (Leica Microsystems, Wetzlar, Germany). Chemical treatment (or 0.1% DMSO as vehicle treatment) was started at 2 h before the amputation (pretreatment) and was continued for 4 h after the tail fin amputation (20 larvae per group, unless indicated otherwise), at which time point the larvae were fixed in 4% paraformaldehyde (PFA) overnight at 4° C. and stored at 4° C. until further examination. In some experiments, a 24 h treatment with miglustat, ME656 or MZ31 was started at 2 dpf, and these treatments were continued during the pretreatment and treatment with the other chemicals. For imaging of larvae from the Tg(mpx:GFP^i114/mpeg1:mCherry^umsF001) line, a LeicaMZ16FA fluorescence stereomicroscope with LAS 3.7 software was used. Neutrophils were detected by GFP fluorescence and macrophages by mCherry fluorescence. The neutrophil numbers were determined by blinded manual counting in a pre-determined area. When larvae from gba2^−/− or gr^s357mutant lines were used, neutrophil labeling was performed with the TSA fluorescein detection kit (PerkinElmer) for specific staining of Myeloperoxidase (Mpx)-positive cells, following the manufacturer's instructions.

[2] = system: il1b, il6, mmp9, mmp13, il8 mRNA; test: qPCR of pro-inflammatory genes after tail wounding; type: in vivo, Zebrafish (Danio rerio)
Excerpt: as §1
For experiments in zebrafish, gene expression was measured using 3 dpf embryos. Groups of 15 larvae were collected in TRIzol reagent (Invitrogen) and mRNA was isolated using the miRNeasy mini kit (Qiagen), according to the manufacturer's instructions. For experiments in HeLa cells, samples were collected from a single well from 6 well plates (80% confluent) in TRIzol reagent and mRNA was isolated using the RNeasy mini kit. Zebrafish and cells samples were treated with DNAse utilizing the DNA-Free™ kit (Ambion). The cDNA synthesis was performed using iScript cDNA synthesis kit (Bio-Rad) using 1 μg of RNA per sample. For qPCR, 10 μM of forward and 10 μM of reverse primer, 12.5 μL of iQ SYBR Green Supermix (Bio-Rad), and 2 μL of cDNA were added to the qPCR reaction mixture. […] The qPCR reactions were performed on a MyiQ-single-color real-time PCR detection system (Bio-Rad) with initial denaturation for 3 min at 95° C. and 40 cycles of 15 s at 95.5° C., 15 s at 60° C., and 30 s at 72° C. Cycle threshold values (Ct values, i.e. the cycle numbers at which a threshold value of the fluorescence intensity was reached) were determined for each sample. The gene expression level for each sample was normalized using the expression of ppial (peptidylprolyl isomerase Ab (cyclophilin A)) for zebrafish samples, and 18S rRNA for human cells. The fold change per sample (compared to the respective control group) was calculated using the ΔΔCt method.

regenerated tail fin = test: Regeneration of the tail fin after wounding; type: in vivo, Zebrafish (Danio rerio); details: 5 dpf larvae, wounded at 2 dpf; for tissue regeneration with MZ31: GBA2 inhibitor MZ31
Method: (§2) When the regeneration of the tail fins after wounding or the larval body length was used as a readout, chemical treatments of the embryos were started at 2 hours post fertilization (hpf) and continued until 5 dpf. During this period, solutions were refreshed daily. At 5 dpf, larvae were imaged using a LeicaMZ16FA fluorescence stereomicroscope supported by LAS 3.7 software, and the length of the larvae was measured using ImageJ software (15 larvae per treatment group). For the regeneration experiments, tail fins were amputated at 2 dpf and larvae were imaged at 5 dpf (15 larvae per treatment group). The newly grown tissue can be distinguished from the old tissue, enabling precise measurement of the size of the newly grown tissue using ImageJ software.

Gr = test: Transactivation activity of Gr in Tg(9xGCRE-HSV.UI23:EGFP) reporter line; type: in vivo, Zebrafish (Danio rerio); details: 24 h treatment, 3 dpf larvae
Method: The Tg(9xGCRE-HSV.UI23:EGFP)^ia20 zebrafish reporter line expresses enhanced green fluorescent protein (EGFP) under the control of a promoter containing an array of nine GREs. To study the effect of chemical treatments on the transactivation activity of the Gr, 15 zebrafish embryos per group (2 dpf) were treated with the indicated compounds for 24 hours. The transactivation activity of Gr induced by the treatments was assessed using a LeicaMZ16FA fluorescence stereomicroscope supported by LAS 3.7 software. The integrated intensity of the EGFP signal in the larvae was determined using ImageJ software.

[3] = Whole-body glucose measurement in larvae; details: 5 dpf larvae treated from 2 hpf, non-wounded
Method: Zebrafish embryos at 2 hpf received a chemical treatment, as indicated, with daily refreshment of the solutions, until 5 dpf. At 5 dpf, the larvae were collected in an Eppendorf tube and 100 μL of ice-cold glucose buffer was added to each sample. The larvae were homogenized using a BulletBlender® for 3 min at 8,000 rpm. The homogenates were then centrifuged at 4° C. for 8 min at 11000 rpm and the supernatant was stored at −20° C. Whole-body glucose concentrations were determined using a Glucose Colorimetric Assay kit (Cayman Chemical, USA), according to the manufacturer's instructions. In each experiment, three biological replicates were used for each treatment group, and the colorimetric assay was performed using technical duplicates.

[4] = Whole-body cortisol measurement using ELISA; details: for whole body cortisol level: 5 dpf larvae treated from 2 hpf, non-wounded; for whole body cortisol level under wounding conditions / whole body cortisol level under wounding conditions with MZ31: 5 dpf larvae, wounded at 2 dpf; for whole body cortisol level under wounding conditions with MZ31: GBA2 inhibitor MZ31
Method: Zebrafish embryos at 2 hpf received a chemical treatment, as indicated, with daily refreshment of the solutions, until 96 hpf. Then, the treatments were stopped and embryos were incubated in egg water until 5 dpf to avoid cross-reactivity with the compounds of the cortisol antibody used in the ELISA. Then, the treatments were stopped and replaced with egg water. At 5 dpf, the larvae were collected in an Eppendorf tube and 100 μL of ice-cold phosphate-buffered saline (PBS) was added. The larvae were homogenized using a BulletBlender® for 3 min at 8,000 rpm. Ethyl acetate was added to the homogenate and the supernatant was gathered and vaporized. A volume of 150 μl of 0.2% Bovine serum albumin (Sigma Aldrich) dissolved in phosphate-buffered saline (PBS) was added to the samples and frozen. Whole-body cortisol of the zebrafish larvae was determined by ELISA (Demeditec Diagnostics GmbH, Kiel-Wellsee, Germany), following the manufacturer's instructions. In each experiment, three biological replicates were used for each treatment group, and the colorimetric assay was performed using technical duplicates.

IL-6 = test: CAIA model: serum IL-6 by ELISA; type: in vivo, mouse
Method: All mice received 1.5 mg of a CAIA-cocktail (Chondrex) intravenously on day 1, followed by intraperitoneal (i.p.) injection of 50 μg LPS (Chondrex) on day 4. Mice were randomly divided into six groups. […] Scores were assigned blinded. […] The blood collection on day 14 was performed after 6 h fasting. On day 15, mice were sacrificed using carbon dioxide, and tissue samples were collected that were immediately frozen in liquid nitrogen. Applied humane endpoints were a total body weight loss of >20% in comparison to the day of LPS treatment or reaching an arthritis score of 45.
IL-6 concentrations were determined by ELISA in the serum collected at days 10 and 15, using the IL-6 mouse ELISA kit (Invitrogen), following the manufacturer's protocol. The insulin concentration was determined in serum collected at day 14, using the Ultra-sensitive mouse insulin ELISA kit (Crystal Chem), following the manufacturer's protocol. Corticosterone concentrations were determined in serum collected at day 15, using the Corticosterone HS (high sensitivity) enzyme immunoassay kit (Immunodiagnostic Systems), following the manufacturer's protocol. Expression levels of various GR target genes were determined by qPCR in the tissue samples (homogenized in TRIzol Reagent (ThermoFisher)) collected at day 15.

[5] = system: collagen antibody-induced arthritis (CAIA)
Larval body length = type: in vivo, Zebrafish (Danio rerio); details: 5 dpf, treatment from 2 hpf
Method: as §2

[6] = Pdn 12.5 or 25 mg/kg i.p. daily from day 7

SMILES	reduction in neutrophil migration in the presence of MZ31 [1]	neutrophil migration in Gba2-deficient larvae [1]	inhibition of neutrophil migration in Gr deficient larvae [1]	reduction in neutrophil migration in the presence of miglustat [1]	wounding-induced increase in expression of il1b, il6 and mmp9 [2]	tissue regeneration (length of regenerated tail fin) (regenerated tail fin)	tissue regeneration with MZ31 (regenerated tail fin)	transactivation activity of Gr (GFP signal in GRE:GFP reporter fish line) (Gr)	whole body glucose level [3]	whole body cortisol level [4]	whole body cortisol level under wounding conditions [4]	whole body cortisol level under wounding conditions with MZ31 [4]	migration of neutrophils towards the wounded area ([1]; wild type larvae, 4 h after tail wounding)	expression of the pro-inflammatory genes il1b, il6 and il8 [2]	serum IL-6 level compared to the vehicle group (IL-6; day 10, all treatment groups)	serum IL-6 level (IL-6; day 15, all groups except 12.5 mg/kg GbPdn)	arthritis score at maximal reduction [5, 6]	day of maximal reduction of arthritis score [5, 6]	arthritis scores after treatment initiation ([5]; all dose groups, daily i.p. from day 7)	larval length (Larval body length)
CC(C)=CCC[C@](C)(O[C@@H]1O[C@H](CO[C@@H]2O[C@H](CO)[C@@H](O)[C@H](O)[C@H]2O)[C@@H](O)[C@H](O)[C@H]1O)[C@H]1CC[C@]2(C)[C@@H]1[C@H](O)C[C@@H]1[C@@]3(C)CC[C@H](O[C@@H]4O[C@H](CO)[C@@H](O)[C@H](O)[C@H]4O[C@@H]4O[C@H](CO)[C@@H](O)[C@H](O)[C@H]4O)C(C)(C)[C@@H]3CC[C@]12C [Rb1]	abolished	did not affect the neutrophil migration	the inhibition of neutrophil migration was abolished	abolished	strongly suppressed	neither did they affect; also recorded: minor effect	GBA2-dependent	did not cause an increase in the fluorescence intensity	did not show any effect on glucose	neither did they affect the cortisol concentration	minor effect	GBA2-dependent								
C[C@]12C=CC(=O)C=C1CC[C@@H]1[C@@H]2[C@@H](O)C[C@@]2(C)[C@H]1CC[C@]2(O)C(=O)CO [Pdn, prednisolone]										significantly larger decrease			inhibited the neutrophil migration	these effects were similar to those observed upon Pdn and GPdn treatment	significant reduction of the IL-6 level	undetectable	approximately 0	11 days	decreased rapidly after treatment initiation	
C[C@@H]1C[C@H]2[C@@H]3CCC4=CC(=O)C=C[C@]4(C)[C@@]3(F)[C@@H](O)C[C@]2(C)[C@@]1(O)C(=O)CO [Dex, dexamethasone]									increased the glucose concentration	decreased the cortisol level; also recorded: significantly larger decrease										decreased
CC(C)=CCC[C@](C)(O[C@@H]1O[C@H](CO)[C@@H](O)[C@H](O)[C@H]1O)[C@H]1CC[C@]2(C)[C@@H]1[C@H](O)C[C@@H]1[C@@]3(C)CC[C@H](O[C@@H]4O[C@H](CO)[C@@H](O)[C@H](O)[C@H]4O)C(C)(C)[C@@H]3CC[C@]12C [F2]	abolished	did not affect the neutrophil migration	the inhibition of neutrophil migration was abolished	abolished	strongly suppressed	neither did they affect; also recorded: minor effect	GBA2-dependent	did not cause an increase in the fluorescence intensity	did not show any effect on glucose	neither did they affect the cortisol concentration	minor effect	GBA2-dependent								
